Results from publication PMC6858373 (Scientific Reports, 2019).
Where two headings read alike, the source gives them in different places.

Assays:
[1] = molecular target: T1, FGF14:Nav1.6 C-tail complex (Homo sapiens, UniProt Q92915+Q9UQD0); test: Split-luciferase complementation assay (LCA) in Clone V double stable HEK293 cells; type: cell-based; conditions: for Split Luciferase Assay Z-score Set 1 / Split Luciferase Assay Z-score Set 2: normalized to on-plate 0.3% DMSO controls; for Z-score (LCA primary screening): 30 µM, average of primary screening (n = 2), vs on-plate 0.3% DMSO; for IMin (% Luminescence): antagonists, normalized to DMSO
T1 construct: polymerase chain reaction (PCR) amplification of the FGF14 open reading frame (nt 1–855); C-terminal fragment of Nav1.6 (amino acids 1763–1976) fused with CD4ΔC-tail (amino acids 1–395); expressed in transfected cells
T1 sequence (Q92915 1-252 isoform Q92915-2): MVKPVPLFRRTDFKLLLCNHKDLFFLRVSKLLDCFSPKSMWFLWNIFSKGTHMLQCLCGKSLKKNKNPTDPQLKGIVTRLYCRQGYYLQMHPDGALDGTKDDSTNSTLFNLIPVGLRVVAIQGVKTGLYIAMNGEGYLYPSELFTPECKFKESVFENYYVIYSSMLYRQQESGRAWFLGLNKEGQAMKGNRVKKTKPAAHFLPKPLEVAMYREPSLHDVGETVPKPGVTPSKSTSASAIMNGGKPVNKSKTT
T1 sequence (Q9UQD0 1763-1976 limits assumed): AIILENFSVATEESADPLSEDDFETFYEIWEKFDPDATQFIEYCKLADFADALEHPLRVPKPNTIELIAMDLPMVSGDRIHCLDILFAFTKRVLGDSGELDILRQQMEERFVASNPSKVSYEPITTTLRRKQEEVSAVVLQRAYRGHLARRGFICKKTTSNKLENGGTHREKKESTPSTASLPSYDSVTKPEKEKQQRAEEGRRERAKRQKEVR

[2] = test system: Clone V cells; test: CellTiter Blue (CTB) cell viability counter-screen; conditions: CC_NCI screening, normalized to on-plate 0.3% DMSO controls; for Toxicity Assay % Fluor: CTB cell viability fluorescence; for Toxicity Assay Z-score: CTB cell viability
[3] = molecular target: full-length P. pyralis luciferase (Photinus pyralis, UniProt P08659, K549A/L550V/N119G/N50D/S548I); type: cell-based
Sequence of full-length P. pyralis luciferase (P08659 whole entry N50D/N119G/S548I/K549A/L550V, looked up): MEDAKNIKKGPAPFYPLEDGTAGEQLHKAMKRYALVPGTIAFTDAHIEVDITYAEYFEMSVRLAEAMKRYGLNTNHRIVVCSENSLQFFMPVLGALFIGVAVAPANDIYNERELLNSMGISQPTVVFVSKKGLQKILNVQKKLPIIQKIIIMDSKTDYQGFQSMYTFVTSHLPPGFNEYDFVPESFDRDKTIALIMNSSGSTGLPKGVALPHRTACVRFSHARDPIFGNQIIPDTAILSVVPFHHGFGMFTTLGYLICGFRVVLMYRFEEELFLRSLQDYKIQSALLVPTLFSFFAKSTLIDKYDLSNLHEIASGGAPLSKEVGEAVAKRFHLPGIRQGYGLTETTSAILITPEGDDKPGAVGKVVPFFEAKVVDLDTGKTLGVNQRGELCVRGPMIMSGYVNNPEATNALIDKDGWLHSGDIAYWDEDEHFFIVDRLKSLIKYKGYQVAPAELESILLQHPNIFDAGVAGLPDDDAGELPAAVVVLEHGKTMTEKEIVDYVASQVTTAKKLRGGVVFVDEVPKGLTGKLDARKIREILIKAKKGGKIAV

[4] = test system: Clone V cells; conditions: for Toxicity Assay % Fluor / Toxicity Assay Z-score: human, 16 h, 30 µM
[5] = CC_NCI screening, LCA luminescence, biological replicate Set 1, normalized to on-plate 0.3% DMSO controls (n=16 per plate)
[6] = CC_NCI screening, LCA luminescence, biological replicate Set 2, normalized to on-plate 0.3% DMSO controls (n=16 per plate)
[7] = CC_NCI screening, LCA, biological replicate Set 1
[8] = CC_NCI screening, LCA, biological replicate Set 2
[9] = CC_NCI screening, average of Set 1 and Set 2, normalized to 0.3% DMSO controls
[10] = CC_NCI screening, full-length luciferase counter-screen luminescence, normalized to on-plate 0.3% DMSO controls
[11] = CC_NCI screening, full-length luciferase counter-screen, normalized to on-plate 0.3% DMSO controls
[12] = CC_NCI screening, biological replicate Set 1
[13] = CC_NCI screening, biological replicate Set 1, normalized to on-plate 0.3% DMSO controls (n=16 per plate)
[14] = CC_NCI screening, biological replicate Set 2
[15] = CC_NCI screening, biological replicate Set 2, normalized to on-plate 0.3% DMSO controls (n=16 per plate)
[16] = average of Set 1 and Set 2, normalized to 0.3% DMSO controls
[17] = CC_NCI screening, normalized to on-plate 0.3% DMSO controls

| Structure (SMILES) | Split Luciferase Assay % Lum Set 1 [1, 5] | Split Luciferase Assay %Lum Set 2 [1, 6] | Split Luciferase Assay Z-score Set 1 [1, 7] | Split Luciferase Assay Z-score Set 2 [1, 8] | Split Luciferase Assay %Lum Avg [1, 9] | Toxicity Assay % Fluor [2] | Toxicity Assay Z-score [2] | Luciferase Assay % Lum [3, 10] | Luciferase Assay Z-score [3, 11] | other results |
| --- | --- | --- | --- | --- | --- | --- | --- | --- | --- | --- |
| Cn1nnc2c(C(N)=O)ncn2c1=O [Temozolomide] | 106.86% | 109.23% | 0.55 | 0.75 | 108.05% | 84.35% | -2.19 | 99.34% | -0.09 |  |
| CN(C)C/C=C/C(=O)Nc1cc2c(Nc3ccc(F)c(Cl)c3)ncnc2cc1O[C@H]1CCOC1 [Afatinib] | 72.08% | 61.38% | -2.26 | -3.14 | 66.73% | 82.04% | -2.51 | 73.64% | -3.38 |  |
| CO[C@H]1C[C@@H]2CC[C@@H](C)[C@@](O)(O2)C(=O)C(=O)N2CCCC[C@H]2C(=O)O[C@H]([C@H](C)C[C@@H]2CC[C@@H](O)[C@H](OC)C2)CC(=O)[C@H](C)/C=C(\C)[C@@H](O)[C@@H](OC)C(=O)[C@H](C)C[C@H](C)/C=C/C=C/C=C/1C [RAPAMYCIN] | 95.99% | 74.90% | -0.32 | -2.04 | 85.45% | 110.83% | 1.51 | 77.09% | -2.93 |  |
| C=C1C[C@@H]2[C@H](CC[C@]3(C)C(=O)CC[C@@H]23)[C@@]2(C)C=CC(=O)C=C12 [Exemestane] |  |  | 0.73 | -0.26 |  | 91.81% | -1.14 | 90.38% | -1.23 | Split Luciferase Assay % Lum Set 1 [1]: 109.04%; Split Luciferase Assay %Lum Avg [1]: 102.89%; Split Luciferase Assay %Lum Set 2 [1]: 96.75% |
| Cc1ccc(Nc2nccc(N(C)c3ccc4c(C)n(C)nc4c3)n2)cc1S(N)(=O)=O [PAZOPANIB] | 100.34% | 122.76% | 0.03 | 1.85 | 111.55% | 86.91% | -1.83 | 97.40% | -0.33 |  |
| CN1CCN(CCOc2cc(OC3CCOCC3)c3c(Nc4c(Cl)ccc5c4OCO5)ncnc3c2)CC1 [SARACATINIB] | 85.12% | 98.83% | -1.20 | -0.10 | 91.97% | 108.09% | 1.13 | 107.97% | 1.02 |  |
| Nc1nc2[nH]cc(CCc3ccc(C(=O)N[C@@H](CCC(=O)O)C(=O)O)cc3)c2c(=O)[nH]1 [Pemetrexed] | 112.30% | 110.27% | 0.99 | 0.84 | 111.29% | 94.67% | -0.74 | 94.26% | -0.73 |  |
| C[C@]12O[C@H](C[C@]1(O)CO)n1c3ccccc3c3c4c(c5c6ccccc6n2c5c31)CNC4=O [Lestaurtinib, reference compound] | 50.33% | 40.57% | -4.01 | -4.84 | 45.45% | 90.16% |  | 87.58% | -1.59 | Z-score (LCA primary screening) ([1]; 384-well): −4.42; dose-response behavior of repurchased compounds ([1]; 10-point dose response 0.25-50 µM, Clone V cells): purely inhibitory effects; IC50 ([1]; IC50 (µM), estimated, 8-point dose response 0.25-30 µM, n = 4 per concentration, library compounds): 1.22 µM; IMin (% Luminescence) ([1]; Clone V cells, 384-well): 45.45 % Luminescence; action toward the FGF14:Nav1.6 C-tail interaction ([1]; dose-dependency validation using fresh compound samples): acted as antagonists; IC50 ([1]; in-cell IC50, repurchased compounds, 10-point dose response 0.25-50 µM, n = 8 per concentration, Clone V cells, 384-well): 0.95 µM |
| C[C@@H](Oc1cc(-c2cnn(C3CCNCC3)c2)cnc1N)c1c(Cl)ccc(F)c1Cl [PF-2341066] | 59.03% | 48.89% | -3.31 | -4.16 | 53.96% | 82.92% | -2.39 |  |  |  |
| O=C1NC(=O)/C(=C/c2ccc3c(c2)OCO3)S1 [AS-041164] |  |  |  |  |  |  |  |  |  | Toxicity Assay % Fluor (CTB cell viability fluorescence) [4]: 113.38%; Toxicity Assay Z-score (CTB cell viability) [4]: 1.87; Split Luciferase Assay Z-score Set 1 [1, 12]: -1.38; Split Luciferase Assay % Lum Set 1 [1, 13]: 82.95%; Split Luciferase Assay Z-score Set 2 [1, 14]: 0.50; Split Luciferase Assay %Lum Set 2 [1, 15]: 106.11%; Split Luciferase Assay %Lum Avg [1, 16]: 94.53%; Luciferase Assay % Lum (full-length luciferase counter-screen) [3, 17]: 84.77%; Luciferase Assay Z-score (full-length luciferase counter-screen) [3, 17]: -1.95 |
| COc1cc2c(Oc3ccc4[nH]c(C)cc4c3F)ncnc2cc1OCCCN1CCCC1 [CEDIRANIB] | 69.90% | 57.22% | -2.43 | -3.48 | 63.56% |  |  | 80.88% | -2.45 | Toxicity Assay % Fluor [4]: 86.10%; Toxicity Assay Z-score [4]: -1.94 |
| COc1cc(N2CCC(N3CCN(C)CC3)CC2)ccc1Nc1ncc(Cl)c(Nc2ccccc2S(=O)(=O)C(C)C)n1 [NVP TAE684] |  |  |  |  |  |  |  |  |  | Toxicity Assay % Fluor (CTB cell viability fluorescence) [4]: 37.86%; Toxicity Assay Z-score (CTB cell viability) [4]: -8.69; Split Luciferase Assay Z-score Set 1 [1, 12]: -7.35; Split Luciferase Assay % Lum Set 1 [1, 13]: 9.02%; Split Luciferase Assay Z-score Set 2 [1, 14]: -7.71; Split Luciferase Assay %Lum Set 2 [1, 15]: 5.20%; Split Luciferase Assay %Lum Avg [1, 16]: 7.11%; Luciferase Assay % Lum (full-length luciferase counter-screen) [3, 17]: 96.39%; Luciferase Assay Z-score (full-length luciferase counter-screen) [3, 17]: -0.46 |
| OC[C@H]1O[C@@H](n2cnc3c2NC=NC[C@H]3O)C[C@@H]1O [Pentostatin] |  |  | 2.75 | 3.80 |  |  |  |  |  | Toxicity Assay % Fluor [4]: 86.56%; Toxicity Assay Z-score [4]: -1.88; Split Luciferase Assay % Lum Set 1 [1]: 134.04%; Split Luciferase Assay %Lum Avg [1]: 140.36%; Split Luciferase Assay %Lum Set 2 [1]: 146.68%; Luciferase Assay % Lum [3]: 97.96%; Luciferase Assay Z-score [3]: -0.26 |
| CC(C)C[C@H](NC(=O)[C@H](Cc1ccccc1)NC(=O)c1cnccn1)B(O)O [BORTEZOMIB] | 55.77% | 84.27% | -3.57 | -1.28 | 70.02% |  |  | 88.79% | -1.44 | Toxicity Assay % Fluor [4]: 89.20%; Toxicity Assay Z-score [4]: -1.51 |
| CCn1c(-c2nonc2N)nc2cnc(Oc3cccc(NC(=O)c4ccc(OCCN5CCOCC5)cc4)c3)cc21 [GSK 269962A] | 26.42% | 31.21% | -5.95 | -5.60 | 28.81% |  |  | 79.80% | -2.59 | Toxicity Assay % Fluor [4]: 101.41%; Toxicity Assay Z-score [4]: 0.20 |
| Cc1ccc([N+](=O)[O-])cc1S(=O)(=O)N(C)/N=C/c1cnc2ccc(Br)cn12 [PIK 75, reference compound] |  |  |  |  |  |  |  |  |  | Toxicity Assay % Fluor (CTB cell viability fluorescence) [4]: 101.60%; Toxicity Assay Z-score (CTB cell viability) [4]: 0.22; Z-score (LCA primary screening) ([1]; 384-well): −5.01; Split Luciferase Assay Z-score Set 1 [1, 12]: -6.21; Split Luciferase Assay % Lum Set 1 [1, 13]: 23.16%; IMin (% Luminescence) ([1]; Clone V cells, 384-well): 38.11 % Luminescence; Split Luciferase Assay %Lum Avg [1, 16]: 38.11%; IC50 ([1]; estimated, 8-point dose response 0.25-30 µM, n = 4 per concentration, library compounds, read-out: IC50): 1.63 µM; Luciferase Assay % Lum (full-length luciferase counter-screen) [3, 17]: 87.68%; Luciferase Assay Z-score (full-length luciferase counter-screen) [3, 17]: -1.58 |
